For data set [1], the target named is Dopamine Transporter (Homo sapiens, UniProt Q01959). Briefly: Dopamine transporter binding. An excerpt:
(§1) Further, the compounds of the invention may be tested in binding assays and functional activity assays by well known methods for other physiologically important receptors such as, but not limited to, the hERO channel, other serotonin receptors (specifically 5-HT1B, 5-HT1D, receptors, lack of agonist activity at 5-HT2B receptors, 5-HT2C, 5-HT5, 5-HT6, and 5-HT7 receptors), dopaminergic receptors (specifically D1, D2, and D3), GABAA receptors, adrenergic receptors and monoamine transporters.

The target of data set [2] is Dopamine D1 (Homo sapiens, UniProt P21728). Briefly: Dopamine D1 binding.
From the text: as §1

The target in data set [3] is Adrenergic alpha1B (Homo sapiens, UniProt P35368). Description: Adrenergic alpha1B binding.
From the text: as §1

The target of data set [4] is Adrenergic alpha2C (Homo sapiens, UniProt P18825). Briefly: Adrenergic alpha2C binding.
From the text: as §1

Data set [5] deals with Adrenergic alpha2B (Homo sapiens, UniProt P18089). Briefly: Adrenergic alpha2B binding.
From the text: as §1

Data set [6] has as its target hERG Channel (Homo sapiens, UniProt Q12809). Description: hERG channel.
From the text: as §1

For data set [7], the target named is 5-HT5 (Homo sapiens, UniProt P47898). Briefly: 5-HT5 binding.
From the text: as §1

In data set [8] the target is Adrenergic alpha2A (Homo sapiens, UniProt P08913). Briefly: Adrenergic alpha2A binding.
From the text: as §1

The target of data set [9] is T1, recombinant 5-HT2C receptor (human) (Homo sapiens, UniProt P28335).
T1 construct: expressed in transfected cells; host or cells: AV-12 (membranes)
Briefly: 5-HT2C competition binding assay ([125I]-DOI, SPA). The procedure:
[^125I]-(±)DOI binding experiments are carried out in SPA 96-well format. Membranes used in this assay are prepared from AV-12 cells stably expressing recombinant 5-HT2C receptor (human). The incubation is initiated by the addition of a mixture of WGA PVT SPA beads (0.5 mg/well, Perkin Elmer (MA, USA), RPNQ0001) and 2.5 μg membranes to assay buffer (50 mM Tris-HCl, 10 mM MgCl2, 0.5 mM EDTA, 10 μM pargyline, 0.1% ascorbic acid, pH7.4) containing 0.2 nM [[^125I]-(±)DOI and varying concentrations of the test compound (10 point concentration response curves). Non-specific binding is determined in the presence of 20 μM 1-(1-Naphthyl) piperazine. Samples are incubated for 4 hr. at room temperature (22° C.) and then read in a Microbeta Trilux.
Curves are evaluated using a 4-parameter logistic nonlinear equation to obtain the concentration of competitor causing 50% inhibition of radioligand binding (IC50). Equilibrium dissociation constants (Ki) are calculated according to the equation Ki=IC50/(1+L/Kd), where L equals the concentration of radioligand used in the experiment and Kd equals the equilibrium dissociation constant of the radioligand for the receptor, determined from standard saturation analysis or homologous competition experiments. […]

Data set [10] deals with Dopamine D2 (Homo sapiens, UniProt P14416). Briefly: Dopamine D2 binding.
From the text: as §1

Data set [11] deals with 5-HT1D (Homo sapiens, UniProt P28221). Description: 5-HT1D binding.
From the text: as §1

For data set [12], the target named is T2, 5-HT2A receptor (Mus musculus, UniProt P35363).
T2 construct: from tissue; host or cells: living C57BL/6J mice
Description: Inhibition of DOI induced headshake activity. In kind it is in vivo. The following applies: 10 mg/kg PO, mice, DOI 3 mg/kg, read-out: inhibition of DOI induced headshake response. The procedure: (see for example Bartoszyk G D, van Amsterdam C, Böttcher H, Seyfried C A. EMD 281014, a new selective serotonin 5-HT2A receptor antagonist. Eur J Pharmacol. 2003 473: 229-230.) Briefly, male C57BL/6J mice (20-25 g, Charles River) are housed in standard housing conditions (32 mice in a large IVC cage, 07.00 to 19.00 light phase, constant temperature (19-23° C.) and humidity (50%+/−10), ad lib food and water). Mice received either vehicle (0.25% Methyl cellulose), DOI (3 mg/kg in saline) or test compound at 10 mg/kg PO plus DOI (3 mg/kg in saline). Test compounds are individually evaluated in groups of four per experiment with n=4 for each compound, together with vehicle and DOI+vehicle (n=8). After a test compound pre-treatment time of 60 min. the mice receive either vehicle (saline) or 3 mg/kg DOI dosed subcutaneously, and are then placed into clear perspex observation chambers. […] The data is analyzed using an ANOVA and post-hoc Dunnet's Test. The compound of example 2 is tested essentially as described and is found to inhibit the DOI induced headshake response at 100% at 10 mg/kg.

The target in data set [13] is 5-HT2B (Homo sapiens, UniProt P41595). Briefly: 5-HT2B antagonist functional activity. In kind it is biochemical.
From the text: as §1

Structures can show the parent of a compound that is named as a salt. Bounds are passed on as bounds.

Sequence of 5-HT5 (P47898 whole entry, species assumed): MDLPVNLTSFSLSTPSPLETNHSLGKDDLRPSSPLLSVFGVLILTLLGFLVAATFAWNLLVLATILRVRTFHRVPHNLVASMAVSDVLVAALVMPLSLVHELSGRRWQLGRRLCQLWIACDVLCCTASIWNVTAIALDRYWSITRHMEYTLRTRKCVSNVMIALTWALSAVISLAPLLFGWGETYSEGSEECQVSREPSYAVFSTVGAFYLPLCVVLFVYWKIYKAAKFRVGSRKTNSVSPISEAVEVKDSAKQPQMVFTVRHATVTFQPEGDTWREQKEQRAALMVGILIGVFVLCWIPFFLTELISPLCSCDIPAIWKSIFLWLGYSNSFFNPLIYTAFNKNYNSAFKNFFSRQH
T2 sequence (P35363 whole entry): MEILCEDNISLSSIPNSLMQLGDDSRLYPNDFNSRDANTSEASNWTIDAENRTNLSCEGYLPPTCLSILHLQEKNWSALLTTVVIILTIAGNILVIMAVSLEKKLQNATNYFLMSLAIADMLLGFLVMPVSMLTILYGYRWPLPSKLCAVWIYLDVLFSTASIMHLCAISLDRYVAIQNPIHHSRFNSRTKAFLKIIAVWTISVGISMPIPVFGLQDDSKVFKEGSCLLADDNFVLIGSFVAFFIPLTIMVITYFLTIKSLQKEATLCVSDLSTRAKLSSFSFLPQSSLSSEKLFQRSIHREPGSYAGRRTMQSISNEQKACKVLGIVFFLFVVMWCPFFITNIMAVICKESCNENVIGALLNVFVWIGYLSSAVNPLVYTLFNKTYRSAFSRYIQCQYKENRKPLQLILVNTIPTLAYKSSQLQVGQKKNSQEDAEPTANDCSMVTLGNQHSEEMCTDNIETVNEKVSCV
Sequence of Adrenergic alpha2C (P18825 whole entry): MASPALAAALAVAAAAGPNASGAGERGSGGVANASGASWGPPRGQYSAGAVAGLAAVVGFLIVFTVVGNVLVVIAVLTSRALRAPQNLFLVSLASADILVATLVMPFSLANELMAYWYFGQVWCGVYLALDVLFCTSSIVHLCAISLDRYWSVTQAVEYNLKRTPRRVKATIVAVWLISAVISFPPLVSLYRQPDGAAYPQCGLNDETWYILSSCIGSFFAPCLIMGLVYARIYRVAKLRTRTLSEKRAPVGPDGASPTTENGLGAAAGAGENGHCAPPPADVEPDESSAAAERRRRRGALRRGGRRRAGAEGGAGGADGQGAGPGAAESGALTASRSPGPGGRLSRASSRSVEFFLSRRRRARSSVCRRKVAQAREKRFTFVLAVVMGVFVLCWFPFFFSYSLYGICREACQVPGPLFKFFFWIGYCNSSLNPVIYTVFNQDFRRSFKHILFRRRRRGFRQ
Sequence of hERG Channel (Q12809 whole entry): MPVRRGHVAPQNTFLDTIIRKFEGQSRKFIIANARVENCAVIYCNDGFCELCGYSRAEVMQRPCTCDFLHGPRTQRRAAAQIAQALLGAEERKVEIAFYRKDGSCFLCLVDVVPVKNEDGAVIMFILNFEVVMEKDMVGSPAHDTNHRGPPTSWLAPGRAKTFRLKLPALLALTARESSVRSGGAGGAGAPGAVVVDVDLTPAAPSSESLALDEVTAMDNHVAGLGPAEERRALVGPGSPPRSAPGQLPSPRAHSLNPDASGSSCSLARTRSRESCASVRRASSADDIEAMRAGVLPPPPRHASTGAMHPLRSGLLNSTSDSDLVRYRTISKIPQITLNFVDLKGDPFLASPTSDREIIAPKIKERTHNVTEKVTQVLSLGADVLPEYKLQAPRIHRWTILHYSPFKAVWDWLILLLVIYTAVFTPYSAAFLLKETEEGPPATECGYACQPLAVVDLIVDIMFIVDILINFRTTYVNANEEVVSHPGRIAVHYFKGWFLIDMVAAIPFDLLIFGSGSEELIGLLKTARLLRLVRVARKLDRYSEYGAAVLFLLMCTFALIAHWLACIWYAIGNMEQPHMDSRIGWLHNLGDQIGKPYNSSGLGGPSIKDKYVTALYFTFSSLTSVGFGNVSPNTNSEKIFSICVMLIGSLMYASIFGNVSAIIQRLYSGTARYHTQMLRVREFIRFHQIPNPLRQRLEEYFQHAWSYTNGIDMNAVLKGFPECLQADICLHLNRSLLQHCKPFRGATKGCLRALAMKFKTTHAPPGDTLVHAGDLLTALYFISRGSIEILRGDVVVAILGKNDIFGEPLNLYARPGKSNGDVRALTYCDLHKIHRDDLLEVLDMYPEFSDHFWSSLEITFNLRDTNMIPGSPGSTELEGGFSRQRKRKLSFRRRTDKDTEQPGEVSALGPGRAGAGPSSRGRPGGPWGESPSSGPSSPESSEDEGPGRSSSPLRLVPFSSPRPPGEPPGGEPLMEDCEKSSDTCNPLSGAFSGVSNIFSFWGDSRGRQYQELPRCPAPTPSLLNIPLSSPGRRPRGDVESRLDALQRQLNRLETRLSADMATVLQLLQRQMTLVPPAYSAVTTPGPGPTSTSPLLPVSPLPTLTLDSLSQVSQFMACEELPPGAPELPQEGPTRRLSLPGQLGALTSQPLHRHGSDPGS
T1 sequence (P28335 33-458): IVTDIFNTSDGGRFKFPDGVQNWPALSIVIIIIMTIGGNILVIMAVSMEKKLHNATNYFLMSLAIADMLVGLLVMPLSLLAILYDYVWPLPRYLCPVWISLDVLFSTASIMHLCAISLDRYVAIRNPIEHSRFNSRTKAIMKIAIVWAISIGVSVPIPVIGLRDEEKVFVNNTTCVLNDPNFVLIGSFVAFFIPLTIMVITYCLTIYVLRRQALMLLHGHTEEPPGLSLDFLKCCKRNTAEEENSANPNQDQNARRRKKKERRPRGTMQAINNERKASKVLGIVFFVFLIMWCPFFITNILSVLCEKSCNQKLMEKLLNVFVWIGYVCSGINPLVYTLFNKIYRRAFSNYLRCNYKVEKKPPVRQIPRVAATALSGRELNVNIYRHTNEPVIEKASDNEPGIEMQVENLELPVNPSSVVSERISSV
Sequence of Dopamine Transporter (Q01959 whole entry): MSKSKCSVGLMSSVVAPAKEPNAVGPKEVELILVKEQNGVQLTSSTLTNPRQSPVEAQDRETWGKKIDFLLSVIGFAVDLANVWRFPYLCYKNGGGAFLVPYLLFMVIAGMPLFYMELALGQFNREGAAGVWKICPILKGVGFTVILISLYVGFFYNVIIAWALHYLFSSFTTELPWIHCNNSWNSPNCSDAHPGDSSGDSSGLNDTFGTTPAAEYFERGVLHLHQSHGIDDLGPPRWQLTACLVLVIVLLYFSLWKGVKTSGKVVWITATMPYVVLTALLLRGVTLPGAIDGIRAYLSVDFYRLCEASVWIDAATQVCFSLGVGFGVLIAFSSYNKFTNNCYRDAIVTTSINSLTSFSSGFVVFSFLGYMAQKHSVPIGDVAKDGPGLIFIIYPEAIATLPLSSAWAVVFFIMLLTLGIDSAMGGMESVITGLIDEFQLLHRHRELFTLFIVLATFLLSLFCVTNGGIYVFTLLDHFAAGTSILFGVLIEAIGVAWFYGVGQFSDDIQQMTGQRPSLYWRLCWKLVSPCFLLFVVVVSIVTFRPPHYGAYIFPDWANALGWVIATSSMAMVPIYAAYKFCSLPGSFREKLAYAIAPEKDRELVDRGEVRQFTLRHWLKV
Sequence of Adrenergic alpha1B (P35368 whole entry): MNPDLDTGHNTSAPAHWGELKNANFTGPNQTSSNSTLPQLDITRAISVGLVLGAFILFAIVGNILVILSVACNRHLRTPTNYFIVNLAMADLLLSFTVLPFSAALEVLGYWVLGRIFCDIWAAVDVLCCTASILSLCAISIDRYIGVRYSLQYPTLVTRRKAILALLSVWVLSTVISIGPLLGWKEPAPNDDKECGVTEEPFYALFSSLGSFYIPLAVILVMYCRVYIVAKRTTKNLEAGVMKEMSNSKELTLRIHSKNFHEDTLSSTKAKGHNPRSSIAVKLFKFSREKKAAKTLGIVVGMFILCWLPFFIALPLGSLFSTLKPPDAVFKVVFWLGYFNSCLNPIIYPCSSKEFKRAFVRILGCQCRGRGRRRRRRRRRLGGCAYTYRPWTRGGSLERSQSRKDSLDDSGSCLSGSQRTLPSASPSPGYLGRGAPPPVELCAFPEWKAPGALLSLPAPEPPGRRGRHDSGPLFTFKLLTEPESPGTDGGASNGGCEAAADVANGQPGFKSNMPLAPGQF
Sequence of Adrenergic alpha2B (P18089 whole entry): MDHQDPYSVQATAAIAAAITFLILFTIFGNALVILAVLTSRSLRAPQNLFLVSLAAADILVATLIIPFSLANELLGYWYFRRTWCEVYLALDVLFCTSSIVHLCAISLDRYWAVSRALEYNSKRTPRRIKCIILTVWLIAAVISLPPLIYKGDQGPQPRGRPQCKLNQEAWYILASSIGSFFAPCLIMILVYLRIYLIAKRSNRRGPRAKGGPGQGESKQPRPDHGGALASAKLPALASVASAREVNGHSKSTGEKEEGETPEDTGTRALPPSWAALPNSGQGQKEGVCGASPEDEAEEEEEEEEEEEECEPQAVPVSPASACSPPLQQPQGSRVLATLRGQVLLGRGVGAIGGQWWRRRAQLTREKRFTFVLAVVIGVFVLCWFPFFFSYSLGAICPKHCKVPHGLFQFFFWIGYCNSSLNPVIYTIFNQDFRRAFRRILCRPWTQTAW
Sequence of Adrenergic alpha2A (P08913 whole entry): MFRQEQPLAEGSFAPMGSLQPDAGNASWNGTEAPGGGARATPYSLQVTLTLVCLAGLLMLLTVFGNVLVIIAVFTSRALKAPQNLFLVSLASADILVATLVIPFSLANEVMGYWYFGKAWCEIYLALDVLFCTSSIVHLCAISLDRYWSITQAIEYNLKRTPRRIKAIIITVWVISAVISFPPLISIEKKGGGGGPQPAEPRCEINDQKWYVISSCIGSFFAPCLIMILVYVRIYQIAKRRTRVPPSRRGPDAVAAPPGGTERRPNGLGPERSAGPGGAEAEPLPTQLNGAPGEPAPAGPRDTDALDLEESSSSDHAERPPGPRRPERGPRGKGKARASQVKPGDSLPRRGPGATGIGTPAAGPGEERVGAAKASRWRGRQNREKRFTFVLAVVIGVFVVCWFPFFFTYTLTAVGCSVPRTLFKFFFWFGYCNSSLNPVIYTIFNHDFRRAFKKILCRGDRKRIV

On to `Cc1ccc2c(c1)Oc1sc(C)cc1C(N1CCN(CC(C)(C)C(=O)O)CC1)=N2` [Example 2, 3-[4-(2,8-Dimethylthieno[2,3-b][1,5]benzoxazepin-4-yl)piperazin-1-yl]-2,2-dimethyl-propanoic acid dihydrochloride], for which the Ki in [1] was more than 0.877 µM; in [2], 2.35 µM; in data set [3], more than 16.2 µM; in data set [4], more than 5.55 µM; in [5], 3.71 µM; in [7] it was more than 8.83 µM. In addition, the Ki was more than 9.02 µM in data set [8], 0.883 µM in data set [9], 2.48 µM in data set [10] and more than 3.98 µM in data set [11]. Further, the “hERG Channel” value in data set [6] was more than 100 µM. Also, the inhibition at 10 mg/kg in data set [12] came to 100%. In addition, in data set [13], the Kb stood at 0.045 µM.

As usually defined, the Ki is a measure of affinity in units of concentration, obtained from inhibition or displacement. In general, inhibition refers to the share of the control response that was lost under treatment. One may read the Kb as the equilibrium dissociation constant of an antagonist, usually derived from a functional assay. A high value points to lower antagonist affinity.

For the origin of these results see patent US9512140B2, “(Thieno[2,3-b][1,5]benzoxazepin-4-yl)piperazin-1-yl compounds as dual activity H1 inverse agonists/5-HT2A antagonists” (priority 2011, dated 2016).
